The conditions of data set [1]: cited from earlier work.
In a further data set the test system is gastric acid secretion. In words: Gastric secretion in the pylorus-ligated rat (modified Shay procedure). Format: in vivo. As to conditions: intraduodenal, 4 hours after ligation, read-out: % Inhibition of acid output; for inhibition in vivo at 16 mg/kg: 16 mg/kg i.d.; for inhibition in vivo at 32 mg/kg: 32 mg/kg i.d.; for inhibition in vivo at 4 mg/kg: 4 mg/kg i.d. Here is the method:
The procedure for testing gastric secretion in the rat, a modification of the procedure of Shay et al., Gastroenterology, 26, 906-13 (1954) is carried out as follows:
Male Charles River rats weighing 200-300 grams are deprived of food but not water for 24 hours prior to use. Water is, however, withheld during the experiment. The rats are weighed, anesthetized, and the pylorus ligated according to the method of Shay et al. Treatment or vehicle control is then administered interduodenally (i.d.). Rats are housed 2/cage and sacrificed with CO2 four hours after ligation. The stomachs are removed, rinsed, and contents emptied into a graduated centrifuge tube. The tubes are centrifuged for 20 minutes at 2,000 RPM and the volume of gastric juice recorded. Any samples obviously contaminated by feces, food or hemolysis are eliminated. An aliquot of each is frozen for later analysis of Na^+, K^+ and Cl^- concentration. The pH is measured and 1 ml. of gastric juice is titrated with 0.1 N NaOH to a pH of 7.0-7.4. Titratable acid output is calculated in microequivalents and the percent inhibition of acid output is calculated as follows: [formula]

Data set [2] deals with T1, H2 histamine receptors (Cavia porcellus, UniProt P47747).
T1 construct: from tissue; host or cells: guinea pig right atrium (spontaneously beating)
In words: Guinea pig heart (spontaneously beating right atrium) test: antagonism of histamine-induced positive chronotropic response. It is filed as cell-based. The note with it: 30 min preincubation, 32 °C, pH 7.4. How it is done: The guinea pig heart atrium test is carried out as follows:
A guinea pig right atrium is suspended at 1 g. tension (isometric) in a thermostatically controlled (32° C.) tissue bath (10 ml.) containing oxygenated (95% O2; 5% CO2) Krebs-Haenseleit buffer (pH 7.4). The tissue is allowed to stabilize over 1 hour. Individual contractions are recorded with a force-displacement transducer through a strain gauge coupler. A control dose-response curve to histamine in the above described tissue bath is obtained after which the tissue is washed 3 times and allowed to re-equilibrate to basal rate. The test compound is added to the tissue bath at the desired final concentration. Thirty minutes after addition of the compound, a fresh histamine dose response curve is again obtained. Then the response to histamine in the presence of antagonist is compared to the histamine control response. This procedure is repeated, using fresh tissues, for each concentration of antagonist tested.

Data set [3] concerns H2 histamine receptors. As to conditions: cited from earlier work.
Where [4] appears, read: histamine dose-response, three experiments, read-out: pA2 Value (apparent dissociation constant of the H2 antagonist) (converted).
Setting [5] is: values marked *: result of only one experiment, read-out: pKB value (converted).

Each structure is given as a SMILES string. Structures can show the parent of a compound that is named as a salt. Where two headings read alike, the source gives them in different places.

T1 sequence (P47747 whole entry): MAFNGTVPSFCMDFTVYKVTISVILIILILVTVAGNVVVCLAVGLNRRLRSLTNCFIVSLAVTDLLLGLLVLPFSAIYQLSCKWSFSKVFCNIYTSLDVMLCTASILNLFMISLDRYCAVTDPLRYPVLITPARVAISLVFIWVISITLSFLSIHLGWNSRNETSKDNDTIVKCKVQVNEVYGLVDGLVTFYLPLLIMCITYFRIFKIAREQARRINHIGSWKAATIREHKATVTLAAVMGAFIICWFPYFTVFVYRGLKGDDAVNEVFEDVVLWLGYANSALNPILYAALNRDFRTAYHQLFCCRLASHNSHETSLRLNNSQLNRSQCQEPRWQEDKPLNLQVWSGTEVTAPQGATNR

Regarding `CN/C(=N/CCSCc1nc[nH]c1C)NC#N` [Cimetidine], the “tendency to cause confusional states” value in data set [1] (elderly patients) is “tendency to cause confusional states in elderly patients”. In addition, in data set [1] (patients), the anti-androgenic activity entry is “anti-androgenic activity” and the duration of action result is “short duration of action”.
Turning to `N#Cc1ccc(-c2csc(NC(=N)N)n2)cc1` [Example 1, [4-(4-Cyanophenyl)-2-Thiazolyl]Guanidine, Hydrobromide], the inhibition in vivo at 16 mg/kg in the data set with gastric acid secretion came to 50%.
For the compound `N#CCc1ccc(-c2csc(NC(=N)N)n2)cc1` [Example 2, [4-[4-(Cyanomethyl)Phenyl]-2-Thiazolyl]Guanidine, Hydrobromide], the inhibition in vivo at 32 mg/kg with gastric acid secretion was 79%.
With `N#Cc1cccc(-c2csc(NC(=N)N)n2)c1` [Example 3, [4-(3-Cyanophenyl)-2-Thiazolyl]Guanidine, Hydrobromide, Hydrate], at H2 histamine receptors [2] (setting [4]), the Kb is 251 nM. Also, the inhibition in vivo at 4 mg/kg in the data set on gastric acid secretion was determined as 40%.
In the case of `N=C(N)Nc1nc(-c2cccc(C(=O)O)c2)cs1` [Example 4, 3-[2-[(Aminoiminomethyl)Amino]-4-Thiazolyl]Benzoic Acid, Hydrochloride], the pKB value on H2 histamine receptors [2] (values marked *: result of only one experiment) is given as 6.1.
Consider `N=C(N)Nc1nc(-c2cccc(C(N)=NO)c2)cs1` [Example 5, 3-[2-[(Aminoiminomethyl)Amino]-4-Thiazolyl]-N-Hydroxybenzenecarboximidamide, Dihydrochloride], for which, at H2 histamine receptors [2] (setting [4]), the Kb is 50.1 nM. Further, the inhibition in vivo at 32 mg/kg in the data set with gastric acid secretion stood at 68%.
For `N=C(N)Nc1nc(-c2cccc(C(N)=NOC(N)=O)c2)cs1` [Example 6, N-[(Aminocarbonyl)oxy]-3-[2-[(Aminoiminomethyl)Amino]-4-Thiazolyl]Benzenecarboximidamide, Hydrochloride, Hemihydrate], the Kb at H2 histamine receptors [2] (setting [4]) was 63.1 nM.
Take `CC(=O)ON=C(N)c1cccc(-c2csc(NC(=N)N)n2)c1` [Example 7, N-(Acetyloxy)-3-[[2-[(Aminoiminomethyl)Amino]-4-Thiazolyl]Benzenecarboximidamide, Dihydrochloride]: the Kb on H2 histamine receptors [2] (setting [4]) is 39.8 nM.
With `N=C(N)Nc1nc(-c2cccc(-c3noc(C(F)(F)F)n3)c2)cs1` [Example 8, [4-[3-[5-(Trifluoromethyl)-1,2,4-Oxadiazol-3-yl]Phenyl]-2-Thiazoyl]Guanidine, Hydrochloride], in the data set with gastric acid secretion, the inhibition in vivo at 32 mg/kg was found to be 84%.
For the compound `N=C(N)Nc1nc(-c2cccc(C(=N)N)c2)cs1` [Example 9, 3-[2-[(Aminoiminomethyl)Amino]-4-Thiazolyl]Benzenecarboximidamide, Dihydrobromide, Hemiethanolate], the Kb on H2 histamine receptors [2] (setting [4]) is 5.01 nM. Also, in the data set with gastric acid secretion, the inhibition in vivo at 32 mg/kg was found to be 55%.
Regarding `CCOC(=N)c1cccc(-c2csc(NC(=N)N)n2)c1` [Example 10, 3-[2-[(Aminoiminomethyl)Amino]-4-Thiazolyl]Benzenecarboximidic Acid Ethyl Ester], the inhibition in vivo at 4 mg/kg with gastric acid secretion came to 41%.
As to `N=C(N)Nc1nc(-c2cccc(C(N)=O)c2)cs1` [Example 11, 3-[2-[(Aminoiminomethyl)Amino]-4-Thiazolyl]Benzenecarboxamide, Hydrobromide], the Kb at H2 histamine receptors [2] (setting [5]) was 50.1 nM.
As to `CN=C(N)c1cccc(-c2csc(NC(=N)N)n2)c1` [Example 12, 3-[2-[(Aminoiminomethyl)Amino]-4-Thiazolyl]-N-Methylbenzenecarboximidamide,Quarter Hydrate], the Kb at H2 histamine receptors [2] (setting [5]) is 6.31 nM. Also, in the data set with gastric acid secretion, the inhibition in vivo at 16 mg/kg was 75%.
For the compound `N=C(N)Nc1nc(-c2cccc(C(=O)NN)c2)cs1` [Example 13, 3-[2-[(Aminoiminomethyl)Amino]-4-Thiazolyl]Benzoic Acid Hydrazide, Hydrochloride], at H2 histamine receptors [2] (setting [5]), the Kb was 79.4 nM.
In the case of `CNC(=NC#N)NCCSCc1csc(N=C(N)N)n1` [tiotidine], the “H2 antagonist activity relative to cimetidine (in words)” value in the data set with H2 histamine receptors [3] is on record as “greater activity than cimetidine”.

Values taken from US4452985A, “2-Guanyl-4-(substituted phenyl) thiazole derivatives” (American Home Products Corporation, priority 1983, dated 1984).
